In patent US20130029928A1 (priority 2010, published 2013):
Read-outs that look alike come from different tables or passages of the source.

Test: Phase I study CXR1002-001: plasma pharmacokinetics (LC-MS/MS)
Format: in vivo, human
Settings: human, plasma, oral, person, plasma, read-out: Concentration; for concentration at 192 h: 192 hr (Day 9); for concentration at 336 h: 336 hr (Day 15); for concentration at 360 h: 360 hr (Day 16); for concentration at 504 h: 504 hr (Day 22); for concentration at 528 h: 528 hr (Day 23); for concentration at 672 h: 672 hr (Day 29); for concentration at 696 h: 696 hr (Day 30); for concentration at 24 h: 24 hr (Day 2); for concentration at 168 h: 168 hr (Day 8)
Text: PK samples, PD (fasting) samples, blood glucose, and blood triglyceride samples, were taken over a 6-week period.
Dose limiting toxicity (DLT) will be based on the toxicity assessments over the first 3-week period of the repeat dosing schedule. PK samples (single blood sample) were taken on the following basis: • Every 6 weeks during the repeat dosing phase • If dosing is interrupted or stopped, samples will be taken at intervals according to patient convenience • PK sampling for safety evaluation may take place at any time, as clinically indicated
Plasma samples were collected after the single 50 mg dose at the following timepoints: Pre-dose, and then 0.25, 0.5, 0.75, 1, 1.5, 2, 3, 4, 6, 24, 48, and 72 hours after administration and then once weekly at weeks 2, 3, 4, 5, and 6 (days 8, 15, 22, 29, and 36). For patients treated with the weekly repeat dose, plasma samples were collected at the following timepoints: Pre-dose and then 2, 3, 4 and 24 hours after administration for a total of 6 weeks. Thereafter a single sample was collected every 6 weeks for monitoring of exposure during long term treatment. Plasma samples were processed at site and stored at −80° C. prior to batch shipment to the analytical laboratory.

## O=C(O)C(F)(F)C(F)(F)C(F)(F)C(F)(F)C(F)(F)C(F)(F)C(F)(F)F [CXR1002]
950 mg, Patient 029, 950 mg
  concentration at 172 h: 556 µM
  concentration at 192 h: 606 µM
  concentration at 336 h: 439 µM
  concentration at 338 h: 704 µM
  concentration at 339 h: 777 µM
  concentration at 340 h: 674 µM
  concentration at 360 h: 896 µM
  concentration at 504 h: 400 µM
  concentration at 506 h: 897 µM
  concentration at 507 h: 741 µM
  concentration at 508 h: 701 µM
  concentration at 528 h: 781 µM
  concentration at 672 h: 492 µM
  concentration at 674 h: 841 µM
  concentration at 675 h: 972 µM
  concentration at 676 h: 812 µM
  concentration at 696 h: 949 µM
950 mg, Patient 029, 950 mg, 840 hr (Day 36)
  concentration at 840 h: 777 µM
950 mg, Patient 029, 950 mg, 842 hr
  concentration at 842 h: 793 µM
950 mg, Patient 029, 950 mg, 864 hr (Day 37)
  concentration at 864 h: 1040 µM
950 mg, Patient 030, 950 mg
  concentration at 3 h: 219 µM
  concentration at 4 h: 333 µM
  concentration at 24 h: 214 µM
950 mg, Patient 031, 950 mg
  concentration at 2 h: 267 µM
  concentration at 3 h: 338 µM
  concentration at 4 h: 336 µM
  concentration at 24 h: 348 µM
  concentration at 168 h: 237 µM
  concentration at 170 h: 513 µM
  concentration at 171 h: 463 µM
  concentration at 172 h: 427 µM
  concentration at 192 h: 516 µM
  concentration at 336 h: 554 µM
  concentration at 338 h: 668 µM
  concentration at 339 h: 715 µM
  concentration at 340 h: 697 µM
  concentration at 360 h: 800 µM
  concentration at 504 h: 755 µM
  concentration at 506 h: 794 µM
  concentration at 507 h: 861 µM
  concentration at 508 h: 998 µM
  concentration at 528 h: 958 µM
  concentration at 672 h: 813 µM
  concentration at 674 h: 921 µM
  concentration at 675 h: 882 µM
  concentration at 676 h: 938 µM
  concentration at 696 h: 1030 µM
950 mg, Patient 032, 950 mg
  concentration at 2 h: 292 µM
  concentration at 3 h: 191 µM
  concentration at 4 h: 231 µM
  concentration at 24 h: 161 µM
  concentration at 168 h: 192 µM
  concentration at 170 h: 439 µM
  concentration at 171 h: 478 µM
  concentration at 172 h: 517 µM
  concentration at 192 h: 495 µM
1000 mg, Patient 040, 1000 mg
  concentration at 2 h: 188 µM
  concentration at 3 h: 168 µM
